Patent US20260183420A1, “ACTIVATED NANOTHERAPY FOR SICKLE CELL DISEASE” (UNIVERSITY OF MARYLAND, BALTIMORE, priority 2022, published 2026)

Columns and labels:
[1] = system: human SS RBCs; assay: Laser ektacytometry during controlled deoxygenation/reoxygenation (LORRCA Oxygenscan): POS, POR, elongation index; type: cell-based; conditions: 1 hour
From the text: The LORRCA red blood cell analysis platform was used to obtain information on deformability (cell and cell membrane stability), including under an osmotic gradient (osmotic resistance). The platform also can provide data on aggregation tendency and kinetics and measure the relative oxygen pressure at the critical point when the red blood cells start to sickle. Here, RBC Osmotic Fragility (elongation index (EI) vs. osmolality at specific sheer), RBC Deformability (EI vs sheer at specific osmolality), and RBC Oxyscan Sickling Characteristics (EI vs pO2) were determined. See, for example, FIG. 5.
See FIG. 6 for a description of how EI is calculated. See FIG. 7 for an example calculation of Oxyscan analysis parameters. […] LORRCA determines POS as the pO2 corresponding to a 5% decrease in EImax. If the EI is not completely stable at high pO2 (i.e., the Oxyscan baseline is not level), POS is calculated to be artificially high. FIG. 9 is a graph showing an example point of sickling (POS) determination from “first derivative,” which is taken from the plot. A common method to process, the first derivative of a spectrum is the rate of change of absorbance with respect to wavelength.
(§1) FIG. 19A presents illustrative chromatograms (standards & samples).
(§2) 5-HMF-induced Hb modification was quantitated by HPLC (Waters™ e2695XE Alliance™, Swift WCX-PEEK); O2 dissociation curves (ODC) were measured in intact RBCs (HEMOX Analyzer); pO2's at the point of sickling (POS) and point of unsickling (POU) were determined during controlled Hb O2 unloading/loading, respectively (LORRCA Oxygenscan RR Mechatronics).
(§3) After either 1 hour or 3 hours, either or both oxygen dissociation curves (ODC) or laser ektacytometry was performed to measure either or both p50 and POS/POR. […] As for PK data, effect upon p50 and POS/POR appear to progress from 1 hour to 3 hours. […] See also the results in FIG. 23. CNP=carbon nanoparticle.

[2] = target: T1, Hb (HbS) in human SS RBCs (Homo sapiens, UniProt P69905); assay: 5-HMF-induced Hb modification quantitated by cation exchange HPLC in RBCs from SCD patients; type: cell-based
T1 construct: endogenous in cells; host or cells: red blood cells from patients with sickle cell disease (human SS RBCs)
T1 sequence (P69905 2-142): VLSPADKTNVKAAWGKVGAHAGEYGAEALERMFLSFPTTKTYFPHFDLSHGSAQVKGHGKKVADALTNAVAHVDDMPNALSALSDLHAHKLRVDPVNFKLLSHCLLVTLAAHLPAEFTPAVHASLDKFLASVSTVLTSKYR
T1 sequence (P68871 with tags, fused parts or gaps E7V partner): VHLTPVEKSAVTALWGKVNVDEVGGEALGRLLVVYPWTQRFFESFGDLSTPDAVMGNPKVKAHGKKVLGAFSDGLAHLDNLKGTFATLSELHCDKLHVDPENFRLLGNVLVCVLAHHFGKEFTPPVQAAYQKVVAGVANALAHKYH
Method: HPLC was performed to detect binding of an allosteric effector to Hb.
as §1, §2
See data in FIG. 21A and FIG. 21B (control patients) and FIG. 21C and FIG. 21D (SCD patients).

[3] = target: T2, Hb (HbO2 affinity) in intact SRBCs (Homo sapiens, UniProt P69905); assay: O2 dissociation curve / HbO2 affinity (p50) in intact SRBCs (HEMOX Analyzer); type: cell-based; conditions: pH 7.4, 5 mM 5-HMF, 1 hour, intact SCD RBCs
T2 construct: endogenous in cells; host or cells: red blood cells from patients with sickle cell disease (human SS RBCs)
T2 sequence (P69905 2-142): as the sequence (P69905 2-142) above
T2 sequence (P68871 with tags, fused parts or gaps E7V partner): as the sequence (P68871 with tags, fused parts or gaps E7V partner) above
Method: Hemox analysis methods determine oxygen partial pressure and the degree of hemoglobin saturation with oxygen using a Clark oxygen electrode and spectrophotometry, respectively.
as §1, §2, §3

[4] = human trials; cited from earlier work
[5] = system: RBCs from subjects without sickle cell disease; assay: RBC lysis, blood from subjects without sickle cell disease; type: cell-based, human; conditions: healthy blood, 1-hour incubation at 37° C.
Method: Blood samples (RBCs) from subjects without sickle cell disease were tested with compounds to determine whether the compounds have any impact on RBC physiology, including tests for lysis, LORRCA (deformability and osmotic fragility), and HEMOX (ODC (p50) and cooperativity (Hill number)) after a 1-hour incubation at 37° C. See FIG. 33 for results for HPLC analysis of Hb modification; FIG. 34 for results for % RBC lysis for control blood (combined); FIG. 35 for results as shown; FIG. 36 for results for RBC osmotic fragility; and FIG. 37 for p50 and Hill number results for the oxygen dissociation curve (ODC).

5-HMF induced Hb modification (maximal) ([2]; SCD RBCs, 20% Hct, 37° C., 1 hour, 5 mM 5-HMF): about 75% | ODC p50 [3]: 20.3±1.5 Torr | RBC lysis versus PBS control [5]: no difference
Structure (SMILES): O=Cc1ccc(CO)o1 [Nanoparticle 5-HMF, 5-(hydroxymethyl)furfural]
POR decrease ([1]; 0 vs 5 mM 5-HMF): 45% | POS decrease ([1]; 0 vs 5 mM 5-HMF): 30% | pO2 at point of sickling (POS) ([1]; 5 mM 5-HMF, SCD RBCs): 39.8±11.6 Torr | relative efficacy for % 5-HMF adducted Hb (ranking high to low) ([2]; equimolar for 5-HMF (5 mM), 0.25-24 hours): (high to low): free CoNP, 5-HMF, LP, CD, LNP | bioavailability [4]: low bioavailability | half-life [4]: ~1 h
